Test results from US5300629A, “Bactericidal and/or bacteriostatic peptides isolated from hemolymph of honeybees” (Plant Genetic Systems, N.V., priority 1987, dated 1994).
In brackets after ≈: the same amount, converted by molar mass. Where a SMILES comes first, the peptide text is derived from it.

Tests used:
[1] = system: E. coli NCTC 9001; format: cell-based; conditions: NCTC 9001, 72 h
Description: Whole lymph or purified components, resuspended in PBS to a final volume equal to the starting material (heated lymph), was applied in 3 mm wells on agar plates seeded with the test organisms. Antibacterial activity was determined by measuring the growth-inhibition zones (in mm).
Test conditions: agar inhibition zone obtained with 10 namomole apidaecin, resuspended in 20 μl H2 O/well.

[2] = system: E. coli NCTC 9001; experiment: Bactericidal activity, method not stated; format: cell-based; conditions: lyophilized apidaecins resuspended in PBS
[3] = system: Erwinia salicis NCPPB 2530; experiment: Minimal inhibitory concentration in liquid culture; format: cell-based; conditions: 200 μl rich medium, 10^4 log-phase bacteria
[4] = system: Pseudomonas syringae pv. tomato NCPPB 1106; experiment: Minimal inhibitory concentration in liquid culture; format: cell-based; conditions: 200 μl rich medium, 10^4 log-phase bacteria
[5] = system: Bacillus megaterium QB 1551; experiment: Minimal inhibitory concentration in liquid culture; format: cell-based; conditions: 200 μl rich medium, 10^4 log-phase bacteria, + = no inhibition at maximal value
[6] = system: Rhizobium meliloti ZB 314; experiment: Minimal inhibitory concentration in liquid culture; format: cell-based; conditions: 200 μl rich medium, 10^4 log-phase bacteria
[7] = system: Salmonella Newport CD 94; experiment: Minimal inhibitory concentration in liquid culture; format: cell-based; conditions: 200 μl rich medium, 10^4 log-phase bacteria
[8] = system: Escherichia coli NCTC 9001; experiment: Minimal inhibitory concentration in liquid culture; format: cell-based; conditions: 200 μl rich medium, 10^4 log-phase bacteria
[9] = system: Erwinia carotovora var carotovora NCPPB 312; experiment: Minimal inhibitory concentration in liquid culture; format: cell-based; conditions: 200 μl rich medium, 10^4 log-phase bacteria
[10] = system: Xanthomonas campestris pv. vesicatoria LMG 905; experiment: Minimal inhibitory concentration in liquid culture; format: cell-based; conditions: 200 μl rich medium, 10^4 log-phase bacteria, + = no inhibition at maximal value
Description: (§1) In addition the exact concentration was determined precisely by amino-acid analysis and an equal sample of natural Bee 6b was prepared, allowing to compare the bactericidal activity of both natural and synthetic apidaecins by means of growth inhibition assays in liquid cultures (see mat & Meth.). The minimal inhibitory concentrations (μg/ml) were determined in liquid culture : 200 μl of a rich medium (trypticase soy broth or nutrient broth) was inoculated with 10^4 log-phase bacteria. Peptide concentrations ranged between 0 and 200 μg/ml. The values express μg/ml; when no inhibition was noticed the maximal values are given (+200 μg/ml or +50 μg/ml). All peptides were chemically synthesized, except for bee 6b which is purified from bee lymph.

[11] = system: Corynebacterium insidiosum NCPPB 1109; experiment: Minimal inhibitory concentration in liquid culture; format: cell-based; conditions: 200 μl rich medium, 10^4 log-phase bacteria
Description: as §1

[12] = system: Corynebacterium michiganense pv. michiganense NCPPB 1573; experiment: Minimal inhibitory concentration in liquid culture; format: cell-based; conditions: 200 μl rich medium, 10^4 log-phase bacteria, + = no inhibition at maximal value
Description: as §1

[13] = system: Shigella flexneri CP 87; experiment: Minimal inhibitory concentration in liquid culture; format: cell-based; conditions: 200 μl rich medium, 10^4 log-phase bacteria
Description: as §1

[14] = system: Pseudomonas syringae pv. tabaci NCPPB 1237; experiment: Minimal inhibitory concentration in liquid culture; format: cell-based; conditions: 200 μl rich medium, 10^4 log-phase bacteria
[15] = system: Erwinia carotovora var atroseptica LMG 2385; experiment: Minimal inhibitory concentration in liquid culture; format: cell-based; conditions: 200 μl rich medium, 10^4 log-phase bacteria
[16] = system: Agrobactierium tumefaciens DSM 3129; experiment: Minimal inhibitory concentration in liquid culture; format: cell-based; conditions: 200 μl rich medium, 10^4 log-phase bacteria
[17] = system: Salmonella typhimurium ATCC 23565; experiment: Minimal inhibitory concentration in liquid culture; format: cell-based; conditions: 200 μl rich medium, 10^4 log-phase bacteria
[18] = system: Pseudomonas syringae pv. maculicola NCPPB 1776; experiment: Minimal inhibitory concentration in liquid culture; format: cell-based; conditions: 200 μl rich medium, 10^4 log-phase bacteria
[19] = system: Xanthomonas campestris pv. campestris A 902; experiment: Minimal inhibitory concentration in liquid culture; format: cell-based; conditions: 200 μl rich medium, 10^4 log-phase bacteria, + = no inhibition at maximal value
[20] = system: Citrobacter freundii ATCC 8090; experiment: Minimal inhibitory concentration in liquid culture; format: cell-based; conditions: 200 μl rich medium, 10^4 log-phase bacteria
[21] = system: Pseudomonas solanacearum ATCC 11696; format: cell-based; conditions: 200 μl rich medium, 10^4 log-phase bacteria
[22] = system: Tobacco leaf protoplasts

**Q.** For CC[C@H](C)[C@H](NC(=O)[C@@H](N)Cc1ccc(O)cc1)C(=O)N1CCC[C@H]1C(=O)N[C@@H](CCC(N)=O)C(=O)N1CCC[C@H]1C(=O)N[C@@H](CCCNC(=N)N)C(=O)N1CCC[C@H]1C(=O)N1CCC[C@H]1C(=O)N[C@@H](Cc1c[nH]cn1)C(=O)N1CCC[C@H]1C(=O)N[C@@H](CCCNC(=N)N)C(=O)N[C@@H](CC(C)C)C(=O)O [Apid IB6, Y-I-P-Q-P-R-P-P-H-P-R-L] (H-YIPQPRPPHPRL-OH), which agar inhibition zone [1] is on record?
**A.** Its agar inhibition zone is 9 mm.

**Q.** Which agar inhibition zone [1] does the source give for CC[C@H](C)[C@H](NC(=O)[C@H](Cc1ccc(O)cc1)NC(=O)[C@@H](NC(=O)[C@@H]1CCCN1C(=O)[C@H](CCCNC(=N)N)NC(=O)[C@@H](N)CC(N)=O)C(C)C)C(=O)N1CCC[C@H]1C(=O)N[C@@H](CCC(N)=O)C(=O)N1CCC[C@H]1C(=O)N[C@@H](CCCNC(=N)N)C(=O)N1CCC[C@H]1C(=O)N1CCC[C@H]1C(=O)N[C@@H](Cc1c[nH]cn1)C(=O)N1CCC[C@H]1C(=O)N[C@@H](CCCNC(=N)N)C(=O)N[C@@H](CC(C)C)C(=O)O [Apid Ib2, N-R-P-V-Y-I-P-Q-P-R-P-P-H-P-R-L] (H-NRPVYIPQPRPPHPRL-OH) here?
**A.** Its agar inhibition zone is 16 mm.

**Q.** For CC[C@H](C)[C@H](NC(=O)[C@H](Cc1ccc(O)cc1)NC(=O)[C@@H](NC(=O)[C@@H]1CCCN1)C(C)C)C(=O)N1CCC[C@H]1C(=O)N[C@@H](CCC(N)=O)C(=O)N1CCC[C@H]1C(=O)N[C@@H](CCCNC(=N)N)C(=O)N1CCC[C@H]1C(=O)N1CCC[C@H]1C(=O)N[C@@H](Cc1c[nH]cn1)C(=O)N1CCC[C@H]1C(=O)N[C@@H](CCCNC(=N)N)C(=O)N[C@@H](CC(C)C)C(=O)O [Apid Ib4, P-V-Y-I-P-Q-P-R-P-P-H-P-R-L] (H-PVYIPQPRPPHPRL-OH), which agar inhibition zone [1] is on record?
**A.** The agar inhibition zone was 14 mm.

**Q.** Which results are given for CC[C@H](C)[C@H](NC(=O)[C@H](Cc1ccc(O)cc1)NC(=O)[C@@H](NC(=O)[C@@H]1CCCN1C(=O)[C@H](CCCNC(=N)N)NC(=O)[C@H](CC(N)=O)NC(=O)[C@H](CC(N)=O)NC(=O)CN)C(C)C)C(=O)N1CCC[C@H]1C(=O)N[C@@H](CCC(N)=O)C(=O)N1CCC[C@H]1C(=O)N[C@@H](CCCNC(=N)N)C(=O)N1CCC[C@H]1C(=O)N1CCC[C@H]1C(=O)N[C@@H](Cc1c[nH]cn1)C(=O)N1CCC[C@H]1C(=O)N[C@@H](CCCNC(=N)N)C(=O)N[C@@H](CC(C)C)C(=O)O [Apid Ib] (H-GNNRPVYIPQPRPPHPRL-OH)?
**A.** bactericidal activity [2]: possessed a bactericidal activity; agar inhibition zone [1]: 18 mm

**Q.** With CC[C@H](C)[C@H](NC(=O)[C@H](CCCNC(=N)N)NC(=O)[C@@H]1CCCN1C(=O)[C@H](Cc1c[nH]cn1)NC(=O)[C@@H]1CCCN1C(=O)[C@@H]1CCCN1C(=O)[C@H](CCCNC(=N)N)NC(=O)[C@@H]1CCCN1C(=O)[C@H](CCC(N)=O)NC(=O)[C@@H]1CCCN1C(=O)[C@@H](NC(=O)[C@H](Cc1ccc(O)cc1)NC(=O)[C@@H](NC(=O)[C@@H]1CCCN1C(=O)[C@H](CCCNC(=N)N)NC(=O)[C@H](CC(N)=O)NC(=O)[C@H](CC(N)=O)NC(=O)[C@H](CC(N)=O)NC(=O)CN)C(C)C)[C@@H](C)CC)C(=O)O [Apid NT+1] (H-GNNNRPVYIPQPRPPHPRI-OH) as the compound, how does the minimal inhibitory concentration [3] read?
**A.** Its minimal inhibitory concentration is 0.02 µg/mL (≈ 0.009 µM).

**Q.** And the minimal inhibitory concentration [4]?
**A.** The minimal inhibitory concentration was 1 µg/mL (≈ 0.45 µM).

**Q.** What about the minimal inhibitory concentration [5] of the same compound?
**A.** The minimal inhibitory concentration was 100 µg/mL.

**Q.** What about the minimal inhibitory concentration [6] of the same compound?
**A.** Its minimal inhibitory concentration is 0.1 µg/mL (≈ 0.045 µM).

**Q.** And the minimal inhibitory concentration [7]?
**A.** The minimal inhibitory concentration was 1 µg/mL (≈ 0.45 µM).

**Q.** And the minimal inhibitory concentration [8]?
**A.** Its minimal inhibitory concentration is 0.2 µg/mL (≈ 0.09 µM).

**Q.** What about the bactericidal activity [2] of the same compound?
**A.** The bactericidal activity was “possessed a bactericidal activity”.

**Q.** And the minimal inhibitory concentration [9]?
**A.** Its minimal inhibitory concentration is 2.5 µg/mL (≈ 1.12 µM).

**Q.** And the minimal inhibitory concentration [10]?
**A.** Its minimal inhibitory concentration is over 50 µg/mL.

**Q.** And the minimal inhibitory concentration [11]?
**A.** The minimal inhibitory concentration was 100 µg/mL (≈ 45 µM).

**Q.** What about the minimal inhibitory concentration [12] of the same compound?
**A.** Its minimal inhibitory concentration is over 50 µg/mL.

**Q.** And the minimal inhibitory concentration [13]?
**A.** The minimal inhibitory concentration was 0.1 µg/mL (≈ 0.045 µM).

**Q.** What about the minimal inhibitory concentration [14] of the same compound?
**A.** Its minimal inhibitory concentration is 2.5 µg/mL (≈ 1.12 µM).

**Q.** What about the minimal inhibitory concentration [15] of the same compound?
**A.** The minimal inhibitory concentration was 1 µg/mL (≈ 0.45 µM).

**Q.** What about the minimal inhibitory concentration [16] of the same compound?
**A.** The minimal inhibitory concentration was 0.2 µg/mL (≈ 0.09 µM).

**Q.** What about the minimal inhibitory concentration [17] of the same compound?
**A.** The minimal inhibitory concentration was 0.1 µg/mL (≈ 0.045 µM).

**Q.** And the minimal inhibitory concentration [18]?
**A.** The minimal inhibitory concentration was 2.5 µg/mL (≈ 1.12 µM).

**Q.** And the minimal inhibitory concentration [19]?
**A.** Its minimal inhibitory concentration is over 50 µg/mL.

**Q.** And the minimal inhibitory concentration [20]?
**A.** The minimal inhibitory concentration was 0.2 µg/mL (≈ 0.09 µM).

**Q.** What about the minimal inhibitory concentration [21] of the same compound?
**A.** The minimal inhibitory concentration was 25 µg/mL (≈ 11.2 µM).

**Q.** What does the source list for CC[C@H](C)[C@H](NC(=O)[C@H](Cc1ccc(O)cc1)NC(=O)[C@@H](NC(=O)[C@@H]1CCCN1C(=O)[C@H](CCCNC(=N)N)NC(=O)[C@H](CC(N)=O)NC(=O)[C@H](CC(N)=O)NC(=O)CN)C(C)C)C(=O)N[C@@H](CCC(N)=O)C(=O)N1CCC[C@H]1C(=O)N[C@@H](CCCNC(=N)N)C(=O)N1CCC[C@H]1C(=O)N1CCC[C@H]1C(=O)N[C@@H](Cc1c[nH]cn1)C(=O)N1CCC[C@H]1C(=O)N[C@@H](CCCNC(=N)N)C(=O)N[C@@H](CC(C)C)C(=O)O [Apid PT-1] (H-GNNRPVYIQPRPPHPRL-OH)?
**A.** minimal inhibitory concentration [3]: 0.05 µg/mL (≈ 0.0249 µM); minimal inhibitory concentration [4]: 0.1 µg/mL (≈ 0.0497 µM); minimal inhibitory concentration [5]: 150 µg/mL; minimal inhibitory concentration [6]: 0.02 µg/mL (≈ 0.00994 µM); minimal inhibitory concentration [7]: 5 µg/mL (≈ 2.49 µM); minimal inhibitory concentration [8]: 5 µg/mL (≈ 2.49 µM); bactericidal activity [2]: possessed a bactericidal activity; minimal inhibitory concentration [13]: 0.5 µg/mL (≈ 0.249 µM); minimal inhibitory concentration [16]: 0.5 µg/mL (≈ 0.249 µM); minimal inhibitory concentration [17]: 5 µg/mL (≈ 2.49 µM); minimal inhibitory concentration [20]: 5 µg/mL (≈ 2.49 µM)

**Q.** CC[C@H](C)[C@H](NC(=O)[C@H](Cc1ccc(O)cc1)NC(=O)[C@@H](NC(=O)[C@@H]1CCCN1C(=O)[C@H](CCCNC(=N)N)NC(=O)[C@H](CC(N)=O)NC(=O)[C@H](CC(N)=O)NC(=O)CN)C(C)C)C(=O)N1CCC[C@H]1C(=O)N[C@@H](CCC(N)=O)C(=O)N1CCC[C@H]1C(=O)N[C@@H](CCCNC(=N)N)C(=O)N1CCC[C@H]1C(=O)N1CCC[C@H]1C(=O)N[C@@H](Cc1cnc[nH]1)C(=O)N1CCC[C@H]1C(=O)N[C@@H](CCCNC(=N)N)C(=O)N[C@@H](CC(C)C)C(=O)O [bee 6b] (H-GNNRPVYIPQPRPPHPRL-OH) was tested. Which “cell division and callus formation” value ([22]; after immobilization in low melting agarose) did it give?
**A.** The value was “normal cell division and callus formation occured”.

**Q.** And the “visible effects during incubation” value ([22]; tobacco leaf protoplasts 10^6 cells/ml, 2 days, 10 ng/ml up to 50 μg/ml)?
**A.** Its value is “no visible effects were observed”.
